Laboratory results reported in patent publication US20220133738A1, “GENOTYPE AND DOSE-DEPENDENT RESPONSE TO AN ASBTI IN PATIENTS WITH BILE SALT EXPORT PUMP DEFICIENCY” (MIRUM PHARMACEUTICALS, INC., priority 2019, published 2022).
Several values for one entry are separate records, joined by “and”; a condition that tells them apart may be missing. Equal values may be shown once.

Key:
Format in all cases: in vivo, human
[1] = tested on: children with progressive familial intrahepatic cholestasis (PFIC); assay: INDIGO phase 2 open-label efficacy and safety study of maralixibat in children with PFIC
Source text: The HRQoL used was the […] QUALITY OF LIFE INVENTORY (PedsQL).

[2] = tested on: overweight and obese adults; assay: Dose-ranging phase 1 clinical study (NCT02475317): fecal bile acid excretion with maralixibat and volixibat; details: for fBA excretion, mean change from baseline: baseline to day 6 and 7
[3] = tested on: adults with primary sclerosing cholangitis (PSC); assay: CAMEO 14-week single-arm open-label phase 2a study of maralixibat in primary sclerosing cholangitis
Method: Participants were adults aged 18-80 years with a diagnosis of PSC. PSC diagnosis included a documented history of alkaline phosphatase (ALP) levels greater than 1.5 times above the upper limit of normal, biliary obstruction, and histological findings consistent with PSC diagnosis (if previously biopsied). The study enrolled 27 adults.
Efficacy was assessed by measuring at baseline and throughout the study sBA concentration, serum 7αC4 concentration (a marker of de novo bile acid synthesis), serum aoutotaxin concentration, LDL-C concentration, serum total cholesterol concentration, serum liver enzyme concentrations, and pruritus severity. Pruritus severity was determined by calculating Adult Itch Reported Outcome (ITCHRO) weekly sum scores and average daily scores (mean score over a 7-day period). Participants self-reported the ITCHRO daily on a scale 0-10 (0=no pruritus; 10=most severe pruritus).
Outcomes were assessed in the overall study population and in subgroups of participants (A) with any pruritus at baseline or (B) with an ITCHRO average daily score ≥4 out of 10 at baseline. Efficacy endpoints were based on change from baseline to week 14 or early termination (ET) and were analyzed using paired t-tests or Wilcoxon signed rank tests.

[4] = tested on: children with progressive familial intrahepatic cholestasis (PFIC); assay: INDIGO phase 2 open-label efficacy and safety study of maralixibat in children with PFIC; remark: listed apart in the source
[5] = individual participants A-F with ITCHRO daily score ≥4 at baseline, one line per participant
[6] = participants with ITCHRO daily score ≥4 at baseline

SMILES: CCCCC1(CCCC)CS(=O)(=O)c2ccc(N(C)C)cc2[C@@H](c2ccc(OCc3ccc(C[N+]45CCN(CC4)CC5)cc3)cc2)[C@H]1O [maralixibat]
- Multi-parameter Responders (n/N) ([1]; Mild PFIC 2 (N = 7)): 1/7
- Multi-parameter Responders (n/N) ([1]; Moderate PFIC 2 (N = 12)): 6/12
- Multi-parameter Responders (%) ([1]; Non-truncating BSEP (N = 19)): (36.8%)
- Multi-parameter Responders (n/N) ([1]; Non-truncating BSEP (N = 19), response = >70% reduction or normalization in sBA and >1.0 reduction or <1.0 ITCHRO(OBS)): 7/19
- Multi-parameter Responders (n/N) ([1]; Truncating BSEP (N = 6)): 0/6
- 7αC4:sBA ratio ([1]; high-dose responder, prior to administration of 560 μg/kg/day): 12 times baseline
- Response (observed response) ([1]; individual PFIC 2 participants, one line per Subject ID of Table 3, (No reponse [sic] / Rapid complete response / Good response), max dose 280 or 560 μg/kg/day): Rapid (4×) and No (18×) and Good
- 7αC4:sBA ratio, mean change from baseline at week 48 ([1]; low-dose responders (range, 5-3982)): 1388 times baseline ratio
- 7αC4 concentrations at 48 weeks relative to baseline ([1]; non-responders (range, 0.5-6)): 1.8 × baseline
- responders in long-term extension ([1]; patients having an ABCB11 gene with a truncating mutation): no patients
- patients with ≥1.0 pt. reduction in ITCHRO(OBS) score ([1]; patients with non-truncating BSEP mutations, FIG. 6): 10/19
- sBA levels Normalized (±≤8.5 μmol/L), n ([1]; responders (n = 6) by week 48): 4
- Response ([1]; subject 016054, moderate PFIC 2, wrapped cell r43-r46 reads 'No response until 560 reached'): No
- PedsQL total score, change from baseline to week 48, mean ([1]; week 48): +8.2
- fBA excretion, mean change from baseline ([2]; 10 mg dose (QD), 7 days): 515 µmol
- fBA excretion, mean change from baseline ([2]; 20 mg dose (QD), 7 days): 532 µmol
- fBA excretion, mean change from baseline ([2]; 50 mg BID, 7 days): 1251 µmol
- fBA excretion, mean change from baseline ([2]; 100 mg QD, 7 days): 1144 µmol
- fBA excretion, dose dependence ([2]; across tested doses, 7 days): increased in a dose-dependent manner
- treatment-emergent adverse events ([2]; all doses, 7 days): mild, and none were serious
- Mean serum 7αC4 ([2]; baseline to day 7, greatest change at maralixibat 50 mg BID): increased
- Mean sBA levels ([2]; day 7 versus baseline): not elevated
- tolerability ([3]; adults with PSC, 14 weeks): well tolerated
- participants with worsening of pruritus by >1 point ([3]; baseline to week 14): No participants
- Changes in serum total bilirubin, alanine aminotransferase, aspartate aminotransferase, and alkaline phosphatase concentrations ([3]; baseline to week 14/ET): not statistically significant
- ItchRO average daily score (0-10 scale), Change from baseline to week 14/ET [3, 5]: −4.6 and −1.7 and −3.7 (2×) and −9.1 and −4.7
- ItchRO average daily score (0-10 scale), Week 14/ET [3, 5]: 1.3 and 5.1 and 3.1 and 2.3 and 0 (2×)
- Mean conjugated bilirubin levels, increase ([3]; overall population): 0.19 mg/dL
- total cholesterol, mean change ([3]; overall population): -21.2 mg/dL
- ITCHRO weekly sum scores, decrease from baseline ([3]; overall population, baseline to week 14/ET, 10 mg/day maintenance): 51%
- serum LCL-C concentration, change from baseline ([3]; overall population, SD 17.6): -16.3 mg/dL
- serum autotaxin concentration, change from baseline ([3]; overall population, SD 319): -148 ng/mL
- Mean levels of 7αC4, increase from baseline ([3]; overall, week 14/ET): 130%
- sBA levels, decrease from baseline ([3]; overall, week 14/ET): 38%
- 7αC4, mean increase from baseline ([3]; overall, week 14/ET, SD 13.6): 11.1 ng/mL
- sBA levels, mean change from baseline ([3]; overall, week 14/ET, SD 31.4): -14.8 µmol/L
- Mean levels of 7αC4, increase from baseline [3, 6]: 107%
- sBA levels, decrease from baseline [3, 6]: 45%
- total cholesterol, mean change [3, 6]: -32.0 mg/dL
- ITCHRO weekly sum scores, decrease from baseline ([3]; participants with ITCHRO daily score ≥4 out of 10 at baseline (n=6), week 14/ET): 70%
- ITCHRO weekly sum scores, decrease from baseline ([3]; participants with any pruritus at baseline (n=18), week 14/ET): 53%
- participants with ITCHRO average daily score improved by >1 point ([3]; week 14/ET): 29.6%
- participants with ITCHRO average daily score improved by >3 points ([3]; week 14/ET): 22.2%
- multi-parameter responders among mild PFIC 2 patients ([4]; 280 μg/kg QD): 1 of 7
- moderate PFIC 2 patients responsive only at the higher dose (high-dose responder) ([4]; 280 μg/kg twice daily): 1 of 12
- responders among moderate PFIC 2 patients ([4]; 280 μg/kg/day by week 48): 5 of 12
- Multi-parameter Responders (%) ([4]; Mild PFIC 2 (N = 7)): (14.3%)
- Multi-parameter Responders (%) ([4]; Moderate PFIC 2 (N = 12)): (50%)
- Multi-parameter Responders (%) ([4]; Truncating BSEP (N = 6)): (0%)
- multi-parameter response ([4]; all PFIC 1 patients and all patients harboring a truncating ABCB11 mutation): not multi-parameter responders
- increase in C4 levels relative to baseline ([4]; all low-dose responders (280 μg/kg/day), within 13 weeks of first administration): at least 2.5 fold
- serum ALT, AST, and bilirubin concentrations over time ([4]; all low-dose responders, within 2-6 months of first administration): normalized or only mildly elevated
- height Z-score ([4]; high dose responder, following treatment response on sBA): increase in height Z-score
- 7αC4:sBA ratio ([4]; high-dose responder, upon administration of 560 μg/kg/day): 1770 times baseline
- cholestasis markers after dose increase ([4]; low-dose responder losing response in long-term extension, raised to 280 μg/kg BID at 640-730 days): sBA concentration decreased, severity of pruritus decreased, serum 7αC4 concentration increased, and 7αC4:sBA ratio increased
- 7αC4 concentrations at 48 weeks relative to baseline ([4]; low-dose responders (range, 3-43)): 14 × baseline
- growth (height Z-score change from baseline) ([4]; low-dose responders, FIG. 4): improved growth relative to baseline
- 7αC4:sBA ratio, mean change from baseline at week 48 ([4]; non-responders (range, 0.43-12)): 1.9 times baseline ratio
- duration of maintained response ([4]; responders in the INDIGO study): for over a year and for up to or beyond 5 years
- Response: reduction in BAs ([4]; subject 080051-L, mild PFIC 2): >70%
- response at the higher dose in prior non-responders ([4]; three non-truncating PFIC 2 patients without response at 280 μg/kg/day given 560 μg/kg/day): one (mentioned above) responded at the higher dose
